pKd: −log10 of the molar value. Where a SMILES comes first, the peptide text is derived from it. Bridges are numbered along the chain shown (N, C = ends). [ ]: non-standard residue; d: D form. Phe(3,4-(OMe)2) = COc1ccc(C[C@H](N)C(=O)O)cc1OC; NMePhe(3-Cl) = CN[C@@H](Cc1cccc(Cl)c1)C(=O)O; NMeW = CN[C@@H](Cc1c[nH]c2ccccc12)C(=O)O; NMeY = CN[C@@H](Cc1ccc(O)cc1)C(=O)O; PEG4 = NCCOCCOCCOCCOCCC(=O)O; Tle = CC(C)(C)[C@H](N)C(=O)O; Nle = CCCC[C@H](N)C(=O)O; Dab = NCC[C@H](N)C(=O)O; Nva = CCC[C@H](N)C(=O)O; Abu = CC[C@H](N)C(=O)O; Dap = NC[C@H](N)C(=O)O; Aib = CC(C)(N)C(=O)O
Molecular target: transferrin receptor (hTfR) (Homo sapiens, UniProt P02786)
Sequence (P02786 whole entry): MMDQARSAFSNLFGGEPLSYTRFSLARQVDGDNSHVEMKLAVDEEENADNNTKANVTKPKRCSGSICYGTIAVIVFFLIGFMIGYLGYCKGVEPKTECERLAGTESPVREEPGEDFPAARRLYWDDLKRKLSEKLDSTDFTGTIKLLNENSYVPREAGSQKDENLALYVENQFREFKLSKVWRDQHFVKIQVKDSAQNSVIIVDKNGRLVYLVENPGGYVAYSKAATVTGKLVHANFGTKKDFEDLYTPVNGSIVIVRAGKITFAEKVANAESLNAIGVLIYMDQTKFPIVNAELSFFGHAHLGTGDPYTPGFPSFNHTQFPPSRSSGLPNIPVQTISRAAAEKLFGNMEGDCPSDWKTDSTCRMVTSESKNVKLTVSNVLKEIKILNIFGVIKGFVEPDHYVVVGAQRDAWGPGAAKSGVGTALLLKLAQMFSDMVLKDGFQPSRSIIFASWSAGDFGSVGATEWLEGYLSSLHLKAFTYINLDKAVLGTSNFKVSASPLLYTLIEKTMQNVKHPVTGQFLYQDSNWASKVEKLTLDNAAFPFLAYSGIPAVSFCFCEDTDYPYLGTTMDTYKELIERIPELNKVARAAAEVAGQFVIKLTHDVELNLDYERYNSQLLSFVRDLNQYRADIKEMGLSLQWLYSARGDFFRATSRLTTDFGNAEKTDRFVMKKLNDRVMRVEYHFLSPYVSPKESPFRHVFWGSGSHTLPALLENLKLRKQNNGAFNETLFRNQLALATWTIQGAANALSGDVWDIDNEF
Experiment: Intermolecular interaction evaluation test between transferrin receptor (hTfR) and peptide by surface plasmon resonance (SPR)
Format: binding
Details: surface plasmon resonance, peptide vs hTfR; read-out: KD value, hTfR binding by SPR (class symbol)
Procedure, shortened: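 hTfR captured on Ni-NTA chip then amine-coupled; peptides run single-cycle kinetics at 5–100 nM in 10 mM HEPES pH 8.0, 150 mM NaCl, 0.05% Tween 20, 0.1% BSA, 1.0% DMSO. KD from least-squares curve fitting of sensorgrams.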

Structure (SMILES)	pKd
CC[C@H](C)[C@@H]1NC(=O)[C@H](Cc2ccc(OC)c(OC)c2)NC(=O)[C@H](Cc2ccc(O)cc2)NC(=O)[C@H](CC(N)=O)NC(=O)[C@H](Cc2c[nH]c3ccccc23)N(C)C(=O)[C@H](C(C)C)NC(=O)[C@H](Cc2cccc(Cl)c2)N(C)C(=O)[C@H](C(C)C)NC(=O)[C@H](C)NC(=O)CSC[C@@H](C(N)=O)NC(=O)[C@H](Cc2ccc(O)cc2)N(C)C(=O)[C@H](Cc2ccccc2)NC(=O)[C@@H](CCCNC(=N)N)NC(=O)[C@H](CCCNC(=N)N)NC(=O)[C@H]([C@@H](C)CC)NC1=O [compound 318] ({CH2CO}-AV[NMePhe(3-Cl)]V[NMeW]NY[Phe(3,4-(OMe)2)]IIR[dR]F[NMeY]C-NH2; thioether N-15)	7.00 to 9.00
CC[C@H](C)[C@@H]1NC(=O)[C@H](Cc2ccc(OCC(=O)O)cc2)NC(=O)[C@H](Cc2ccc(O)cc2)NC(=O)[C@H](CC(N)=O)NC(=O)[C@H](Cc2c[nH]c3ccccc23)N(C)C(=O)[C@H](C(C)C)NC(=O)[C@H](Cc2cccc(Cl)c2)N(C)C(=O)[C@H](C(C)C)NC(=O)[C@H](C)NC(=O)CSC[C@@H](C(N)=O)NC(=O)[C@H](Cc2ccc(O)cc2)N(C)C(=O)[C@H](Cc2ccccc2)NC(=O)[C@@H](CCCNC(=N)N)NC(=O)[C@H](CCCNC(=N)N)NC(=O)[C@H]([C@@H](C)CC)NC1=O [compound 320]	7.00 to 9.00
CC[C@H](C)[C@@H]1NC(=O)[C@H](Cc2ccc(OCCN)cc2)NC(=O)[C@H](Cc2ccc(O)cc2)NC(=O)[C@H](CC(N)=O)NC(=O)[C@H](Cc2c[nH]c3ccccc23)N(C)C(=O)[C@H](C(C)C)NC(=O)[C@H](Cc2cccc(Cl)c2)N(C)C(=O)[C@H](C(C)C)NC(=O)[C@H](C)NC(=O)CSC[C@@H](C(N)=O)NC(=O)[C@H](Cc2ccc(O)cc2)N(C)C(=O)[C@H](Cc2ccccc2)NC(=O)[C@@H](CCCNC(=N)N)NC(=O)[C@H](CCCNC(=N)N)NC(=O)[C@H]([C@@H](C)CC)NC1=O [compound 321]	7.00 to 9.00
CC[C@H](C)[C@@H]1NC(=O)[C@H](Cc2ccc(O)cc2)NC(=O)[C@H](Cc2ccc(O)cc2)NC(=O)[C@H](CC(N)=O)NC(=O)[C@H](Cc2c[nH]c3ccccc23)N(C)C(=O)[C@H](C(C)C)NC(=O)[C@H](Cc2cccc(Cl)c2)N(C)C(=O)[C@H](C(C)C)NC(=O)[C@H](C)NC(=O)CSC[C@@H](C(=O)NCCOCCOCCOCCOCCC(N)=O)NC(=O)[C@H](Cc2ccc(O)cc2)N(C)C(=O)[C@H](Cc2ccccc2)NC(=O)[C@@H](CCCNC(=N)N)NC(=O)C(C)(C)NC(=O)[C@H]([C@@H](C)CC)NC1=O [compound 322]	7.00 to 9.00
CC[C@H](C)[C@@H]1NC(=O)[C@H](Cc2ccc(OC)nc2)NC(=O)[C@H](Cc2ccc(O)cc2)NC(=O)[C@H](CC(N)=O)NC(=O)[C@H](Cc2c[nH]c3ccccc23)N(C)C(=O)[C@H](C(C)C)NC(=O)[C@H](Cc2cccc(Cl)c2)N(C)C(=O)[C@H](C(C)C)NC(=O)[C@H](C)NC(=O)CSC[C@@H](C(N)=O)NC(=O)[C@H](Cc2ccc(O)cc2)N(C)C(=O)[C@H](Cc2ccccc2)NC(=O)[C@@H](CCCNC(=N)N)NC(=O)C(C)(C)NC(=O)[C@H]([C@@H](C)CC)NC1=O [compound 323]	7.00 to 9.00
CC[C@H](C)[C@@H]1NC(=O)[C@H](Cc2ccc(OCC(=O)O)cc2)NC(=O)[C@H](Cc2ccc(O)cc2)NC(=O)[C@H](CC(N)=O)NC(=O)[C@H](Cc2c[nH]c3ccccc23)N(C)C(=O)[C@H](C(C)C)NC(=O)[C@H](Cc2cccc(Cl)c2)N(C)C(=O)[C@H](C(C)C)NC(=O)[C@H](C)NC(=O)CSC[C@@H](C(N)=O)NC(=O)[C@H](Cc2ccc(O)cc2)N(C)C(=O)[C@H](Cc2ccccc2)NC(=O)[C@@H](CCCNC(=N)N)NC(=O)C(C)(C)NC(=O)[C@H]([C@@H](C)CC)NC1=O [compound 324]	< 6.00
CC[C@@H]1NC(=O)[C@H]([C@@H](C)CC)NC(=O)[C@H](Cc2ccc(OC)cc2)NC(=O)[C@H](Cc2ccc(O)cc2)NC(=O)[C@H](CC(N)=O)NC(=O)[C@H](Cc2c[nH]c3ccccc23)N(C)C(=O)[C@H](C(C)C)NC(=O)[C@H](Cc2cccc(Cl)c2)N(C)C(=O)[C@H](C(C)C)NC(=O)[C@H](C)NC(=O)CSC[C@@H](C(=O)NCCOCCOCCOCCOCCC(N)=O)NC(=O)[C@H](Cc2ccc(O)cc2)N(C)C(=O)[C@H](Cc2ccccc2)NC(=O)[C@@H](CCCNC(=N)N)NC(=O)[C@H](CCCNC(=N)N)NC1=O [compound 325] ({CH2CO}-AV[NMePhe(3-Cl)]V[NMeW]NYY(Me)I[Abu]R[dR]F[NMeY]C[PEG4]-NH2; thioether N-15)	7.00 to 9.00
CCC[C@@H]1NC(=O)[C@H]([C@@H](C)CC)NC(=O)[C@H](Cc2ccc(OC)cc2)NC(=O)[C@H](Cc2ccc(O)cc2)NC(=O)[C@H](CC(N)=O)NC(=O)[C@H](Cc2c[nH]c3ccccc23)N(C)C(=O)[C@H](C(C)C)NC(=O)[C@H](Cc2cccc(Cl)c2)N(C)C(=O)[C@H](C(C)C)NC(=O)[C@H](C)NC(=O)CSC[C@@H](C(=O)NCCOCCOCCOCCOCCC(N)=O)NC(=O)[C@H](Cc2ccc(O)cc2)N(C)C(=O)[C@H](Cc2ccccc2)NC(=O)[C@@H](CCCNC(=N)N)NC(=O)[C@H](CCCNC(=N)N)NC1=O [compound 326] ({CH2CO}-AV[NMePhe(3-Cl)]V[NMeW]NYY(Me)I[Nva]R[dR]F[NMeY]C[PEG4]-NH2; thioether N-15)	7.00 to 9.00
CC[C@H](C)[C@@H]1NC(=O)[C@H](Cc2ccc(OC)cc2)NC(=O)[C@H](Cc2ccc(O)cc2)NC(=O)[C@H](CC(N)=O)NC(=O)[C@H](Cc2c[nH]c3ccccc23)N(C)C(=O)[C@H](C(C)C)NC(=O)[C@H](Cc2cccc(Cl)c2)N(C)C(=O)[C@H](C(C)C)NC(=O)[C@H](C)NC(=O)CSC[C@@H](C(=O)NCCOCCOCCOCCOCCC(N)=O)NC(=O)[C@H](Cc2ccc(O)cc2)N(C)C(=O)[C@H](Cc2ccccc2)NC(=O)[C@@H](CCCNC(=N)N)NC(=O)[C@H](CCCNC(=N)N)NC(=O)[C@H](C(C)(C)C)NC1=O [compound 327] ({CH2CO}-AV[NMePhe(3-Cl)]V[NMeW]NYY(Me)I[Tle]R[dR]F[NMeY]C[PEG4]-NH2; thioether N-15)	7.00 to 9.00
CC[C@H](C)[C@@H]1NC(=O)[C@H](Cc2ccc(OC)cc2)NC(=O)[C@H](Cc2ccc(O)cc2)NC(=O)[C@H](CC(N)=O)NC(=O)[C@H](Cc2c[nH]c3ccccc23)N(C)C(=O)[C@H](C(C)C)NC(=O)[C@H](Cc2cccc(Cl)c2)N(C)C(=O)[C@H](C(C)C)NC(=O)[C@H](C)NC(=O)CSC[C@@H](C(=O)NCCOCCOCCOCCOCCC(N)=O)NC(=O)[C@H](Cc2ccc(O)cc2)N(C)C(=O)[C@H](Cc2ccccc2)NC(=O)[C@@H](CCCNC(=N)N)NC(=O)[C@H](CCCNC(=N)N)NC(=O)[C@H]([C@@H](C)O)NC1=O [compound 331]	7.00 to 9.00
CC[C@H](C)[C@@H]1NC(=O)[C@H](Cc2ccc(OC)cc2)NC(=O)[C@H](Cc2ccc(O)cc2)NC(=O)[C@H](CC(N)=O)NC(=O)[C@H](Cc2c[nH]c3ccccc23)N(C)C(=O)[C@H](C(C)C)NC(=O)[C@H](Cc2cccc(Cl)c2)N(C)C(=O)[C@H](C(C)C)NC(=O)[C@H](C)NC(=O)CSC[C@@H](C(=O)NCCOCCOCCOCCOCCC(N)=O)NC(=O)[C@H](Cc2ccc(O)cc2)N(C)C(=O)[C@H](Cc2ccccc2)NC(=O)[C@@H](CCCNC(=N)N)NC(=O)[C@H](CCCNC(=N)N)NC(=O)[C@H]([C@H](C)O)NC1=O [compound 332]	7.00 to 9.00
CC[C@H](C)[C@@H]1NC(=O)[C@H](Cc2ccc(OC)cc2)NC(=O)[C@H](Cc2ccc(O)cc2)NC(=O)[C@H](CC(N)=O)NC(=O)[C@H](Cc2c[nH]c3ccccc23)N(C)C(=O)[C@H](C(C)C)NC(=O)[C@H](Cc2cccc(Cl)c2)N(C)C(=O)[C@H](C(C)C)NC(=O)[C@H](C)NC(=O)CSC[C@@H](C(=O)NCCOCCOCCOCCOCCC(N)=O)NC(=O)[C@H](Cc2ccc(O)cc2)N(C)C(=O)[C@H](Cc2ccccc2)NC(=O)[C@@H](CCCNC(=N)N)NC(=O)[C@H](CCCNC(=N)N)NC(=O)C(C)(C)NC1=O [compound 333] ({CH2CO}-AV[NMePhe(3-Cl)]V[NMeW]NYY(Me)I[Aib]R[dR]F[NMeY]C[PEG4]-NH2; thioether N-15)	7.00 to 9.00
CCCC[C@@H]1NC(=O)[C@H]([C@@H](C)CC)NC(=O)[C@H](Cc2ccc(OC)cc2)NC(=O)[C@H](Cc2ccc(O)cc2)NC(=O)[C@H](CC(N)=O)NC(=O)[C@H](Cc2c[nH]c3ccccc23)N(C)C(=O)[C@H](C(C)C)NC(=O)[C@H](Cc2cccc(Cl)c2)N(C)C(=O)[C@H](C(C)C)NC(=O)[C@H](C)NC(=O)CSC[C@@H](C(=O)NCCOCCOCCOCCOCCC(N)=O)NC(=O)[C@H](Cc2ccc(O)cc2)N(C)C(=O)[C@H](Cc2ccccc2)NC(=O)[C@@H](CCCNC(=N)N)NC(=O)[C@H](CCCNC(=N)N)NC1=O [compound 334] ({CH2CO}-AV[NMePhe(3-Cl)]V[NMeW]NYY(Me)I[Nle]R[dR]F[NMeY]C[PEG4]-NH2; thioether N-15)	7.00 to 9.00
CC[C@H](C)[C@@H]1NC(=O)[C@H](Cc2ccc(OC)cc2)NC(=O)[C@H](Cc2ccc(O)cc2)NC(=O)[C@H](CC(N)=O)NC(=O)[C@H](Cc2c[nH]c3ccccc23)N(C)C(=O)[C@H](C(C)C)NC(=O)[C@H](Cc2cccc(Cl)c2)N(C)C(=O)[C@H](C(C)C)NC(=O)[C@H](C)NC(=O)CSC[C@@H](C(=O)NCCOCCOCCOCCOCCC(N)=O)NC(=O)[C@H](Cc2ccc(O)cc2)N(C)C(=O)[C@H](Cc2ccccc2)NC(=O)[C@@H](CCCNC(=N)N)NC(=O)[C@H](CCCNC(=N)N)NC(=O)[C@H](CN)NC1=O [compound 336] ({CH2CO}-AV[NMePhe(3-Cl)]V[NMeW]NYY(Me)I[Dap]R[dR]F[NMeY]C[PEG4]-NH2; thioether N-15)	7.00 to 9.00
CC[C@H](C)[C@@H]1NC(=O)[C@H](Cc2ccc(OC)cc2)NC(=O)[C@H](Cc2ccc(O)cc2)NC(=O)[C@H](CC(N)=O)NC(=O)[C@H](Cc2c[nH]c3ccccc23)N(C)C(=O)[C@H](C(C)C)NC(=O)[C@H](Cc2cccc(Cl)c2)N(C)C(=O)[C@H](C(C)C)NC(=O)[C@H](C)NC(=O)CSC[C@@H](C(=O)NCCOCCOCCOCCOCCC(N)=O)NC(=O)[C@H](Cc2ccc(O)cc2)N(C)C(=O)[C@H](Cc2ccccc2)NC(=O)[C@@H](CCCNC(=N)N)NC(=O)[C@H](CCCNC(=N)N)NC(=O)[C@H](CCN)NC1=O [compound 337] ({CH2CO}-AV[NMePhe(3-Cl)]V[NMeW]NYY(Me)I[Dab]R[dR]F[NMeY]C[PEG4]-NH2; thioether N-15)	7.00 to 9.00

Reference: patent publication US20230203098A1, “HUMAN TRANSFERRIN RECEPTOR BINDING PEPTIDE” (priority 2020, published 2023)
